Source: patent publication US8987250B2 (Gilead Sciences, Inc., priority 2012, dated 2015)
pEC50: −log10 of the molar value. Where two headings read alike, the source gives them in different places.

System: HIV-IIIb
Assay: Test A: Antiviral Assay in MT4 Cells
Assay type: cell-based
Conditions: Table 2, MT-4 cells infected with HIV-IIIb, 5 days of incubation, CellTiter-Glo, read-out: EC50
In short: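 MT-4 cells pre-infected with HIV-IIIb (0.004 m.o.i.) at 37 °C, then exposed to 3-fold serial compound dilutions (10 concentrations, quadruplicate) in RPMI 1640/10% FBS. After 5 days at 37 °C, viability read by CellTiter-Glo luminescence.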

[1] = Human immunodeficiency virus 1, IIIB, MT4, 120 h

| SMILES | pEC50 [1] | pEC50 |
| --- | --- | --- |
| Cc1cc2nc(-c3ccnc(-c4cnc5c(c4)OCC(=O)N5)c3)sc2c(-c2ccc(Cl)cc2)c1[C@H](OC(C)(C)C)C(=O)O [Compound 184, (S)-2-tert-butoxy-2-(7-(4-chlorophenyl)-5-methyl-2-(2-(3-oxo-3,4-dihydro-2H-pyrido[3,2-b][1,4]oxazin-7-yl)pyridin-4-yl)benzo[d]thiazol-6-yl)acetic acid] | 7.72 |  |
| Cc1cc2nc(-c3ccnc(-n4ccc5cccnc5c4=O)c3)sc2c(-c2ccc(Cl)cc2)c1[C@H](OC(C)(C)C)C(=O)O [Compound 187, (S)-2-tert-butoxy-2-(7-(4-chlorophenyl)-5-methyl-2-(2-(8-oxo-1,7-naphthyridin-7(8H)-yl)pyridin-4-yl)benzo[d]thiazol-6-yl)acetic acid] | 7.60 |  |
| Cc1cc2nc(-c3ccnc(-c4ccc5c(=O)n(C)n(C)c5c4)c3)sc2c(-c2ccc(Cl)cc2)c1[C@H](OC(C)(C)C)C(=O)O [Compound 188, (S)-2-tert-butoxy-2-(7-(4-chlorophenyl)-2-(2-(1,2-dimethyl-3-oxo-2,3-dihydro-1H-indazol-6-yl)pyridin-4-yl)-5-methylbenzo[d]thiazol-6-yl)acetic acid] | 7.92 |  |
| Cc1cc2nc(-c3ccnc(-n4ncc5ccccc54)c3)sc2c(-c2ccc(Cl)cc2)c1[C@H](OC(C)(C)C)C(=O)O [Compound 189, (S)-2-(2-(2-(1H-indazol-1-yl)pyridin-4-yl)-7-(4-chlorophenyl)-5-methylbenzo[d]thiazol-6-yl)-2-tert-butoxy acetic acid] | 6.60 |  |
| Cc1cc2nc(-c3ccnc(-c4nn(C)c5ccccc45)c3)sc2c(-c2ccc(Cl)cc2)c1[C@H](OC(C)(C)C)C(=O)O [Compound 190, (S)-2-tert-butoxy-2-(7-(4-chlorophenyl)-5-methyl-2-(2-(1-methyl-1H-indazol-3-yl)pyridin-4-yl)benzo[d]thiazol-6-yl)acetic acid] | 6.95 |  |
| Cc1cc2nc(-c3ccnc(-c4ccc5c(ccc(=O)n5C)c4)c3)sc2c(-c2ccc(Cl)cc2)c1[C@H](OC(C)(C)C)C(=O)O [Compound 191, (S)-2-tert-butoxy-2-(7-(4-chlorophenyl)-5-methyl-2-(2-(1-methyl-2-oxo-1,2-dihydroquinolin-6-yl)pyridin-4-yl)benzo[d]thiazol-6-yl)acetic acid] | 8.00 |  |
| CNc1ccc2cc(-c3cc(-c4nc5cc(C)c([C@H](OC(C)(C)C)C(=O)O)c(-c6ccc(Cl)cc6)c5s4)ccn3)ccc2n1 [Compound 192, (S)-2-tert-butoxy-2-(7-(4-chlorophenyl)-5-methyl-2-(2-(2-(methylamino)quinolin-6-yl)pyridin-4-yl)benzo[d]thiazol-6-yl)acetic acid] | 7.92 |  |
| Cc1cc2nc(-c3ccnc(-c4ccc5nc(N)ccc5c4)c3)sc2c(-c2ccc(Cl)cc2)c1[C@H](OC(C)(C)C)C(=O)O [Compound 193, (S)-2-(2-(2-(2-aminoquinolin-6-yl)pyridin-4-yl)-7-(4-chlorophenyl)-5-methylbenzo[d]thiazol-6-yl)-2-tert-butoxyacetic acid] | 8.05 |  |
| Cc1cc2nc(-c3ccc4c(=O)n(C)n(C)c4c3)sc2c(-c2ccc(Cl)cc2)c1[C@H](OC(C)(C)C)C(=O)O [Compound 194, (S)-2-tert-butoxy-2-(7-(4-chlorophenyl)-2-(1,2-dimethyl-3-oxo-2,3-dihydro-1H-indazol-6-yl)-5-methylbenzo[d]thiazol-6-yl)acetic acid] | 7.68 |  |
| Cc1cc2nc(-n3ccc4ccncc4c3=O)sc2c(-c2ccc(Cl)cc2)c1[C@H](OC(C)(C)C)C(=O)O [Compound 195, (S)-2-tert-butoxy-2-(7-(4-chlorophenyl)-5-methyl-2-(1-oxo-2,7-naphthyridin-2(1H)-yl)benzo[d]thiazol-6-yl)acetic acid] | 7.96 |  |
| Cc1cc2nc(-c3ccnc(-c4cnc5c(c4)cc(C)n5C)c3)sc2c(-c2ccc(Cl)cc2)c1[C@H](OC(C)(C)C)C(=O)O [Compound 196, (S)-2-tert-butoxy-2-(7-(4-chlorophenyl)-2-(2-(1,2-dimethyl-1H-pyrrolo[2,3-b]pyridin-5-yl)pyridine-4-yl)-5-methylbenzo[d]thiazol-6-yl)acetic acid] | 7.48 |  |
| Cc1cc2nc(-c3cnc4c(c3)cc(C)n4C)sc2c(-c2ccc(Cl)cc2)c1[C@H](OC(C)(C)C)C(=O)O [Compound 197, (S)-2-tert-butoxy-2-(7-(4-chlorophenyl)-2-(1,2-dimethyl-1H-pyrrolo[2,3-b]pyridin-5-yl)-5-methylbenzo[d]thiazol-6-yl)acetic acid] | 7.92 |  |
| Cc1cc2nc(-c3cnc4c(c3)c(C)cn4C)sc2c(-c2ccc(Cl)cc2)c1[C@H](OC(C)(C)C)C(=O)O [Compound 198, (S)-2-tert-butoxy-2-(7-(4-chlorophenyl)-2-(1,3-dimethyl-1H-pyrrolo[2,3-b]pyridin-5-yl)-5-methylbenzo[d]thiazol-6-yl)acetic acid] | 7.41 |  |
| Cc1cc2nc(-c3ccnc(-c4cnc5c(c4)c(C)cn5C)c3)sc2c(-c2ccc(Cl)cc2)c1[C@H](OC(C)(C)C)C(=O)O [Compound 199, (S)-2-tert-butoxy-2-(7-(4-chlorophenyl)-2-(2-(1,3-dimethyl-1H-pyrrolo[2,3-b]pyridin-5-yl)pyridine-4-yl)-5-methylbenzo[d]thiazol-6-yl)acetic acid] |  | 7.02 |
| Cc1cc2nc(-c3ccc4nc(C)n([C@H]5CCN(C)C5)c4c3)sc2c(-c2ccc(Cl)cc2)c1[C@H](OC(C)(C)C)C(=O)O [Compound 200, (S)-2-tert-butoxy-2-(7-(4-chlorophenyl)-5-methyl-2-(2-methyl-1-((S)-1-methylpyrrolidin-3-yl)-1H-benzo[d]imidazol-6-yl)benzo[d]thiazol-6-yl)acetic acid] | 7.85 |  |
| Cc1cc2nc(-c3cnnc(-c4ccc5c(cnn5C)c4)c3)sc2c(-c2ccc(Cl)cc2)c1[C@H](OC(C)(C)C)C(=O)O [Compound 201, (S)-2-tert-butoxy-2-(7-(4-chlorophenyl)-5-methyl-2-(6-(1-methyl-1H-indazol-5-yl)pyridazin-4-yl)benzo[d]thiazol-6-yl)acetic acid] | 8.15 |  |
| COc1ccc(-c2nccc(-c3nc4cc(C)c([C@H](OC(C)(C)C)C(=O)O)c(-c5ccc(Cl)cc5)c4s3)n2)cc1OC [Compound 203, (S)-2-tert-butoxy-2-(7-(4-chlorophenyl)-2-(2-(3,4-dimethoxyphenyl)pyrimidin-4-yl)-5-methylbenzo[d]thiazol-6-yl)acetic acid] | 7.92 |  |
| Cc1cc2nc(-c3ccc(-c4cnn(C)c4C)cc3)sc2c(-c2ccc(Cl)cc2)c1[C@H](OC(C)(C)C)C(=O)O [Compound 204, (S)-2-tert-butoxy-2-(7-(4-chlorophenyl)-2-(4-(1,5-dimethyl-1H-pyrazol-4-yl)phenyl)-5-methylbenzo[d]thiazol-6-yl)acetic acid] | 6.81 |  |
| Cc1cc2nc(-c3ccnc(C4CCN(C)CC4)n3)sc2c(-c2ccc(Cl)cc2)c1[C@H](OC(C)(C)C)C(=O)O [Compound 205, (S)-2-tert-butoxy-2-(7-(4-chlorophenyl)-5-methyl-2-(2-(1-methylpiperidin-4-yl)pyrimidin-4-yl)benzo[d]thiazol-6-yl)acetic acid] | 7.74 |  |
| Cc1cc2nc(N3CCc4ncccc4C3)sc2c(-c2ccc(Cl)cc2)c1[C@H](OC(C)(C)C)C(=O)O [Compound 207, (S)-2-tert-butoxy-2-(7-(4-chlorophenyl)-2-(7,8-dihydro-1,6-naphthyridin-6(5H)-yl)-5-methylbenzo[d]thiazol-6-yl)acetic acid] | 7.72 |  |
| Cc1cc2nc(N3CCc4ccccc4C3)sc2c(-c2ccc(Cl)cc2)c1[C@H](OC(C)(C)C)C(=O)O [Compound 208, (S)-2-tert-butoxy-2-(7-(4-chlorophenyl)-2-(3,4-dihydroisoquinolin-2(1H)-yl)-5-methylbenzo[d]thiazol-6-yl)acetic acid] | 7.21 |  |
| Cc1cc2nc(-c3ccc4c(C)nn(C)c4c3)sc2c(-c2ccc(Cl)cc2)c1[C@H](OC(C)(C)C)C(=O)O [Compound 209, (S)-2-tert-butoxy-2-(7-(4-chlorophenyl)-2-(1,3-dimethyl-1H-indazol-6-yl)-5-methylbenzo[d]thiazol-6-yl)acetic acid] | 7.80 |  |
| Cc1cc2nc(-c3ccc4c(c3)nnn4C)sc2c(-c2ccc(Cl)cc2)c1[C@H](OC(C)(C)C)C(=O)O [Compound 210, (S)-2-tert-butoxy-2-(7-(4-chlorophenyl)-5-methyl-2-(1-methyl-1H-benzo[d][1,2,3]triazol-5-yl)benzo[d]thiazol-6-yl)acetic acid] | 8.22 |  |
| Cc1cc2nc(-c3ccc4c(c3)c(-c3ccncc3)nn4C)sc2c(-c2ccc(Cl)cc2)c1[C@H](OC(C)(C)C)C(=O)O [Compound 213, (S)-2-tert-butoxy-2-(7-(4-chlorophenyl)-5-methyl-2-(1-methyl-3-(pyridin-4-yl)-1H-indazol-5-yl)benzo[d]thiazol-6-yl)acetic acid] | 8.40 |  |
| Cc1cc2nc(-c3ccc4c(c3)c(-c3ccccn3)nn4C)sc2c(-c2ccc(Cl)cc2)c1[C@H](OC(C)(C)C)C(=O)O [Compound 214, (S)-2-tert-butoxy-2-(7-(4-chlorophenyl)-5-methyl-2-(1-methyl-3-(pyridin-2-yl)-1H-indazol-5-yl)benzo[d]thiazol-6-yl)acetic acid] | 7.77 |  |
| Cc1cc2nc(-c3ccnc(-c4cc(C)c5c(cnn5C)c4)c3)sc2c(-c2ccc(Cl)cc2)c1[C@H](OC(C)(C)C)C(=O)O [Compound 215, (S)-2-tert-butoxy-2-(7-(4-chlorophenyl)-2-(2-(1,7-dimethyl-1H-indazol-5-yl)pyridin-4-yl)-5-methylbenzo[d]thiazol-6-yl)acetic acid] | 7.57 |  |
| Cc1cc2nc(-c3ccnc(-c4cc(C)c5nn(C)cc5c4)c3)sc2c(-c2ccc(Cl)cc2)c1[C@H](OC(C)(C)C)C(=O)O [Compound 216, (S)-2-tert-butoxy-2-(7-(4-chlorophenyl)-2-(2-(2,7-dimethyl-2H-indazol-5-yl)pyridin-4-yl)-5-methylbenzo[d]thiazol-6-yl)acetic acid] | 7.82 |  |
